Source: patent US20210122739A1, “NOVEL SULFONAMIDE CARBOXAMIDE COMPOUNDS” (Inflazome Limited, priority 2017, published 2021)

Target: NLRP3 (Homo sapiens, UniProt Q96P20)
Assay: THP-1 cells pyroptosis assay
Format: cell-based
Set-up: Seed THP-1 cells (25,000 cells/well) containing 1.0 μg/ml LPS; host or cells: THP-1 cells, LPS-primed, nigericin-stimulated
Conditions: 1.0 μg/ml LPS, nigericin 5 μM, resazurin readout
Description: It is well established that the activation of NLRP3 leads to cell pyroptosis and this feature plays an important part in the manifestation of clinical disease (Yan-gang Liu et al., Cell Death & Disease, 2017, 8(2), e2579; Alexander Wree et al., Hepatology, 2014, 59(3), 898-910; Alex Baldwin et al., Journal of Medicinal Chemistry, 2016, 59(5), 1691-1710; Ema Ozaki et al., Journal of Inflammation Research, 2015, 8, 15-27; Zhen Xie & Gang Zhao, Neuroimmunology Neuroinflammation, 2014, 1(2), 60-65; Mattia Cocco et al., Journal of Medicinal Chemistry, 2014, 57(24), 10366-10382; T. Satoh et al., Cell Death & Disease, 2013, 4, e644). Therefore, it is anticipated that inhibitors of NLRP3 will block pyroptosis, as well as the release of pro-inflammatory cytokines (e.g. IL-1β) from the cell.
THP-1 cells (ATCC #TIB-202) were grown in RPMI containing L-glutamine (Gibco #11835) supplemented with 1 mM sodium pyruvate (Sigma #S8636) and penicillin (100 units/ml)/streptomycin (0.1 mg/ml) (Sigma #P4333) in 10% Fetal Bovine Serum (FBS) (Sigma #F0804). The cells were routinely passaged and grown to confluency (˜10^6 cells/ml). On the day of the experiment, THP-1 cells were harvested and resuspended into RPMI medium (without FBS). The cells were then counted and viability (>90%) checked by Trypan blue (Sigma #T8154). Appropriate dilutions were made to give a concentration of 625,000 cells/ml. To this diluted cell solution was added LPS (Sigma #L4524) to give a 1 μg/ml Final Assay Concentration (FAC). 40 μl of the final preparation was aliquoted into each well of a 96-well plate. The plate thus prepared was used for compound screening.
The following method step-by-step assay was followed for compound screening. • 1. Seed THP-1 cells (25,000 cells/well) containing 1.0 μg/ml LPS in 40 μl of RPMI medium (without FBS) in 96-well, black walled, clear bottom cell culture plates coated with poly-D-lysine (VWR #734-0317) • 2. Add […] compound (8 points half-log dilution, with 10 μM top dose) or vehicle (DMSO 0.1% FAC) to the appropriate wells • 3. Incubate for 3 hrs at 37° C. in 5% CO2 • 4. Add 5 μl nigericin (Sigma #N7143) (FAC 5 μM) to all wells • 5. Incubate for 1 hr at 37° C. and 5% CO2 • 6. At the end of the incubation period, spin plates at 300×g for 3 mins and remove supernatant • 7. Then add 50 μl of resazurin (Sigma #R7017) (FAC 100 μM resazurin in RPMI medium without FBS) and incubate plates for a further 1-2 hrs at 37° C. and 5% CO2 • 8. Plates were read in an Envision reader at Ex 560 nm and Em 590 nm • 9. IC50 data is fitted to a non-linear regression equation (log inhibitor vs response-variable slope 4-parameters)

Sequence of NLRP3 (Q96P20 whole entry): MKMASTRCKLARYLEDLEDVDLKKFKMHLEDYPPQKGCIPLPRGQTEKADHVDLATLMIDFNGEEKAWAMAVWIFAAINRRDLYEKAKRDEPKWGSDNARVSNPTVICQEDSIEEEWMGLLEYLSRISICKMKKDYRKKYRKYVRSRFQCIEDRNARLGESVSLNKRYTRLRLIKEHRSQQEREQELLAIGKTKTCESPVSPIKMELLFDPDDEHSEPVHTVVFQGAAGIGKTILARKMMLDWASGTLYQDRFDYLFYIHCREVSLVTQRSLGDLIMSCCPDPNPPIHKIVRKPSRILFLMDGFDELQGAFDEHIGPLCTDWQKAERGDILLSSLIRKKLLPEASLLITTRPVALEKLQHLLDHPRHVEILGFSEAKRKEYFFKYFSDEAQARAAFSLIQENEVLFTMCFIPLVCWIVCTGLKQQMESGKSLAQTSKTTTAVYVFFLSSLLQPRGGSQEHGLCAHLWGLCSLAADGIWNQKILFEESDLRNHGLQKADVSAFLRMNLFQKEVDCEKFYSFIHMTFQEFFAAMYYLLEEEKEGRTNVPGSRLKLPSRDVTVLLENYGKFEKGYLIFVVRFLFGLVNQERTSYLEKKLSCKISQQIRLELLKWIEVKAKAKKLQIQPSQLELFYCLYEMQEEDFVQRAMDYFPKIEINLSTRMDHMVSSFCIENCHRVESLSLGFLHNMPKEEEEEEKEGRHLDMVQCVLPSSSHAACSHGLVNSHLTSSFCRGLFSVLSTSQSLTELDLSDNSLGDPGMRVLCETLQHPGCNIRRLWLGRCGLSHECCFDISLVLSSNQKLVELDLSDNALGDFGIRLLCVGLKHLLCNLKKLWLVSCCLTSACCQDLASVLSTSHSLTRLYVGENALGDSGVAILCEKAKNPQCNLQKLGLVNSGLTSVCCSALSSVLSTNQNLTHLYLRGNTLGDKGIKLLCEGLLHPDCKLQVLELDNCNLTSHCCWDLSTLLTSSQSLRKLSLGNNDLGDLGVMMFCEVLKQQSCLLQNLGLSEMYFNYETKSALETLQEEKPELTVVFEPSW

SMILES: CN1CCn2nc(S(=O)(=O)NC(=O)Nc3c4c(cc5c3CCC5)CCC4)cc2C1=O [Example 4, N-((1,2,3,5,6,7-Hexahydro-s-indacen-4-yl)carbamoyl)-5-methyl-4-oxo-4,5,6,7-tetrahydropyrazolo[1,5-a]pyrazine-2-sulfonamide]
- IC50: 2.56 to 10 µM

SMILES: Cn1nc(S(=O)(=O)NC(=O)Nc2c3c(cc4c2CCC4)CCC3)cc1C(=O)N1CCCC1 [Example 59, N-((1,2,3,5,6,7-Hexahydro-s-indacen-4-yl)carbamoyl)-1-methyl-5-(pyrrolidine-1-carbonyl)-1H-pyrazole-3-sulfonamide]
- IC50: 0.64 to 2.56 µM

SMILES: CC(C)c1cccc(C(C)C)c1NC(=O)NS(=O)(=O)c1cc(C(=O)N2CCOCC2)n(C)n1 [Example 21, N-((2,6-Diisopropylphenyl)carbamoyl)-1-methyl-5-(morpholine-4-carbonyl)-1H-pyrazole-3-sulfonamide]
- IC50: 0.64 to 2.56 µM

SMILES: COCCN(C)C(=O)c1cc(S(=O)(=O)NC(=O)Nc2c(C(C)C)cccc2C(C)C)nn1C [Example 22, 3-(N-((2,6-Diisopropylphenyl)carbamoyl)sulfamoyl)-N-(2-methoxyethyl)-N,1-dimethyl-1H-pyrazole-5-carboxamide]
- IC50: 2.56 to 10 µM

SMILES: CN(C(=O)c1cc(S(=O)(=O)NC(=O)Nc2c3c(cc4c2CCC4)CCC3)nn1C)C1CCCC1 [Example 11, N-Cyclopentyl-3-(N-((1,2,3,5,6,7-hexahydro-s-indacen-4-yl)carbamoyl)sulfamoyl)-N,1-dimethyl-1H-pyrazole-5-carboxamide]
- IC50: 0.64 to 2.56 µM

SMILES: CC(C)c1ccc(-c2cncnc2)cc1NC(=O)NS(=O)(=O)c1cc(C(=O)N(C)C)n(C)n1 [Example 34, 3-(N-((2-Isopropyl-5-(pyrimidin-5-yl)phenyl)carbamoyl)sulfamoyl)-N,N,1-trimethyl-1H-pyrazole-5-carboxamide]
- IC50: 0.64 to 2.56 µM

SMILES: COCCNC(=O)c1cc(S(=O)(=O)NC(=O)Nc2c3c(cc4c2CCC4)CCC3)nn1C [Example 77, 3-(N-((1,2,3,5,6,7-Hexahydro-s-indacen-4-yl)carbamoyl)sulfamoyl)-N-(2-methoxyethyl)-1-methyl-1H-pyrazole-5-carboxamide]
- IC50: 2.56 to 10 µM

SMILES: CNC(=O)c1cc(S(=O)(=O)NC(=O)Nc2c3c(cc4c2CCC4)CCC3)nn1C [Example 66, 3-(N-((1,2,3,5,6,7-Hexahydro-s-indacen-4-yl)carbamoyl)sulfamoyl)-N,1-dimethyl-1H-pyrazole-5-carboxamide]
- IC50: 0.64 to 2.56 µM

SMILES: COCCN(CCOC)C(=O)c1cc(S(=O)(=O)NC(=O)Nc2c(C(C)C)cccc2C(C)C)nn1C [Example 23, 3-(N-((2,6-Diisopropylphenyl)carbamoyl)sulfamoyl)-N,N-bis(2-methoxyethyl)-1-methyl-1H-pyrazole-5-carboxamide]
- IC50: 2.56 to 10 µM

SMILES: CCN(CC)C(=O)c1cc(S(=O)(=O)NC(=O)Nc2c(C(C)C)cc(F)cc2C(C)C)nn1C [Example 48, N,N-Diethyl-3-(N-((4-fluoro-2,6-diisopropylphenyl)carbamoyl)sulfamoyl)-1-methyl-1H-pyrazole-5-carboxamide]
- IC50: 0.16 to 0.64 µM

SMILES: CC(C)NC(=O)c1cc(S(=O)(=O)NC(=O)Nc2c(C(C)C)cccc2C(C)C)nn1C [Example 38, 3-(N-((2,6-Diisopropylphenyl)carbamoyl)sulfamoyl)-N-isopropyl-1-methyl-1H-pyrazole-5-carboxamide]
- IC50: 2.56 to 10 µM

SMILES: CC(=O)NCCN(C)C(=O)c1cc(S(=O)(=O)NC(=O)Nc2c3c(cc4c2CCC4)CCC3)nn1C [Example 13, N-(2-Acetamidoethyl)-3-(N-((1,2,3,5,6,7-hexahydro-s-indacen-4-yl)carbamoyl)sulfamoyl)-N,1-dimethyl-1H-pyrazole-5-carboxamide]
- IC50: 2.56 to 10 µM

SMILES: CC(=O)N(C)CCN(C)C(=O)c1cc(S(=O)(=O)NC(=O)Nc2c3c(cc4c2CCC4)CCC3)nn1C [Example 12, 3-(N-((1,2,3,5,6,7-Hexahydro-s-indacen-4-yl)carbamoyl)sulfamoyl)-N,1-dimethyl-N-(2-(N-methylacetamido)ethyl)-1H-pyrazole-5-carboxamide]
- IC50: 2.56 to 10 µM
